This is an account of results in patent US5264420A, “Fibrinogen receptor antagonists” (Merck & Co., Inc., priority 1992, dated 1993).

In this experiment the test system is blood platelets. The experiment can be described thus: Inhibition of platelet aggregation. Format: cell-based.
As to `CCCCN(CC(=O)N[C@H](CCc1ccccc1)CC(=O)O)C(=O)CCCC1CCNCC1` [(2), Pib-N-(n-butyl)Gly-3(R)-(2-phenethyl)-β-alanine], the IC50 was 0.077 µM.

Consider `CCOC(=O)C[C@H](CCc1c[nH]c2ccccc12)NC(=O)CNC(=O)CCCC1CCNCC1` [(5), Pib-Gly-3(S)-[2-(indol-3-yl)ethyl]-β-alanine ethyl ester], for which the IC50 is over 1 µM. The figure for `O=C(O)C[C@@H](CCc1ccccc1)NC(=O)CN(CCc1ccccc1)C(=O)CCCC1CCNCC1` [(4), Pib-N-(2-phenethyl)Gly-3(R)-(2-phenethyl)-β-alanine] is 0.087 µM. The figure for `O=C(O)CC(CCc1cncn1Cc1ccccc1)NC(=O)CNC(=O)CCCC1CCNCC1` (stereo not drawn) [(12), Pib-Gly-3-[2-(3-benzylimidazol-4-yl)ethyl]β-alanine] is 1.5 µM. The figure for `CC(CCc1ccccc1)(CC(=O)O)NC(=O)CNC(=O)CCCC1CCNCC1` (centres unmarked) [(7)] is over 300 µM. In turn, `O=C(O)CC(COc1ccccc1)NC(=O)CNC(=O)CCCC1CCNCC1` (stereo not drawn) [(10), Pib-Gly-3-(phenoxymethyl)β-alanine] registered an IC50 of 2.1 µM. This counts as single-digit micromolar. The figure for `CC(C)N(C(=O)CCCC1CCNCC1)[C@H](CCc1ccccc1)CC(=O)O` [(3), Pib-N-(i-Propyl)-3(R)-(2-phenethyl)-β-alanine] is 0.099 µM. With `O=C(O)CC(CCCCO)NC(=O)CNC(=O)CCCC1CCNCC1` (stereo not drawn) [(9), Pib-Gly-3-[4-(hydroxy)butyl],β-alanine] the figure was 3.7 µM; with “Pib-Gly-3-(3-carboxypropyl)β-alanine [(13)]”, 4 µM. With `Cc1[nH]c2ccccc2c1CCC(CC(=O)O)NC(=O)CNC(=O)CCCC1CCNCC1` (stereo not drawn) [(14), Pib-Gly-3-[2-(2-methylindol-3-yl)ethyl]β-alanine] the figure was 1.1 µM; with `O=C(O)CC(CCc1c[nH]cn1)NC(=O)CNC(=O)CCCC1CCNCC1` (stereo not drawn) [(11), Pib-Gly-3-[2-(imidazol-4-yl)ethyl]β-alanine], 2.7 µM. `O=C(O)C[C@@H](CCc1ccccc1)NC(=O)CN(Cc1ccccc1)C(=O)CCCC1CCNCC1` [(1), Pib-N-(benzyl)Gly-3(R)-(2-phenethyl)-β-alanine] showed an IC50 of 0.25 µM. Compared with the last molecule, the IC50 is about 11-fold lower.

The molecule `O=C(O)CC(CCO)NC(=O)CNC(=O)CCCC1CCNCC1` (stereo not drawn) [(8), Pib-Gly-3-[2-(hydroxy)ethyl]β-alanine] gave an IC50 of over 1 µM. With `O=C(O)C[C@H](CCc1c[nH]c2ccccc12)NC(=O)CNC(=O)CCCC1CCNCC1` [(6), Pib-Gly-3(S)-[2-(indol-3-yl)ethyl]β-alanine] the figure was 31 µM.
